Counter-ions that a name gives are not always drawn. Marks after values point to notes of the source that are not given here. One block for each molecule: values may come before it.
Legend:
[1] = Example 3 Part 2 (Regimen B) dabigatran etexilate + belumosudil plasma PK; format: in vivo, human
Description: The ratio was defined as test/reference. In addition, the intraparticipant variability were also presented. […] No formal interim analyses were performed for this study.

[2] = Example 3 Part 1 (Regimen A) raltegravir + belumosudil plasma PK
Description: (§1) On Day 10, the victim and perpetrator IMPs were administered simultaneously.
(§2) On the evening before each dose, participants were provided with a light snack and were required to fast from all food and drink (except water) for a minimum of 10 hours until the following morning. All study interventions were administered in the fed state, following completion of a standard breakfast (with dosing planned to occur 30 minutes after the start of the breakfast).
(§3) The PK parameters underwent a natural logarithmic transformation and were analyzed using a mixed effect modelling technique. Adjusted geometric mean ratios and 90% confidence intervals (CIs) of the ratios were obtained for each comparison. The ratio was defined as test/reference. In addition, the intraparticipant variability were also presented. […] No formal interim analyses were performed for this study.

[3] = molecular target: ROCK2 (Homo sapiens, UniProt O75116); assay: ROCK2 inhibition; format: biochemical
[4] = clinical; details: human, in vivo
Description: as §1, §2, §3

[5] = metabolite exposure in clinical trials of the belumosudil development program; format: in vivo, human
[6] = cited from earlier work
[7] = Dabigatran etexilate + belumosudil (Day 9), belumosudil 200 mg QD
[8] = Dabigatran etexilate alone (Day 1), 75 mg single dose
[9] = Regimen B, dabigatran etexilate 75 mg single dose + belumosudil 200 mg QD (Day 9)
[10] = dabigatran etexilate + belumosudil vs alone
[11] = dosed with belumosudil compared to dosing alone
[12] = Raltegravir + belumosudil (Day 7), belumosudil 200 mg QD
[13] = Raltegravir alone (Day 1), 400 mg single dose
[14] = Regimen A, raltegravir 400 mg single dose + belumosudil 200 mg QD (Day 7)
[15] = Regimen A, raltegravir 400 mg single dose alone (Day 1)
[16] = raltegravir + belumosudil vs raltegravir alone

ROCK2, sequence (O75116 whole entry): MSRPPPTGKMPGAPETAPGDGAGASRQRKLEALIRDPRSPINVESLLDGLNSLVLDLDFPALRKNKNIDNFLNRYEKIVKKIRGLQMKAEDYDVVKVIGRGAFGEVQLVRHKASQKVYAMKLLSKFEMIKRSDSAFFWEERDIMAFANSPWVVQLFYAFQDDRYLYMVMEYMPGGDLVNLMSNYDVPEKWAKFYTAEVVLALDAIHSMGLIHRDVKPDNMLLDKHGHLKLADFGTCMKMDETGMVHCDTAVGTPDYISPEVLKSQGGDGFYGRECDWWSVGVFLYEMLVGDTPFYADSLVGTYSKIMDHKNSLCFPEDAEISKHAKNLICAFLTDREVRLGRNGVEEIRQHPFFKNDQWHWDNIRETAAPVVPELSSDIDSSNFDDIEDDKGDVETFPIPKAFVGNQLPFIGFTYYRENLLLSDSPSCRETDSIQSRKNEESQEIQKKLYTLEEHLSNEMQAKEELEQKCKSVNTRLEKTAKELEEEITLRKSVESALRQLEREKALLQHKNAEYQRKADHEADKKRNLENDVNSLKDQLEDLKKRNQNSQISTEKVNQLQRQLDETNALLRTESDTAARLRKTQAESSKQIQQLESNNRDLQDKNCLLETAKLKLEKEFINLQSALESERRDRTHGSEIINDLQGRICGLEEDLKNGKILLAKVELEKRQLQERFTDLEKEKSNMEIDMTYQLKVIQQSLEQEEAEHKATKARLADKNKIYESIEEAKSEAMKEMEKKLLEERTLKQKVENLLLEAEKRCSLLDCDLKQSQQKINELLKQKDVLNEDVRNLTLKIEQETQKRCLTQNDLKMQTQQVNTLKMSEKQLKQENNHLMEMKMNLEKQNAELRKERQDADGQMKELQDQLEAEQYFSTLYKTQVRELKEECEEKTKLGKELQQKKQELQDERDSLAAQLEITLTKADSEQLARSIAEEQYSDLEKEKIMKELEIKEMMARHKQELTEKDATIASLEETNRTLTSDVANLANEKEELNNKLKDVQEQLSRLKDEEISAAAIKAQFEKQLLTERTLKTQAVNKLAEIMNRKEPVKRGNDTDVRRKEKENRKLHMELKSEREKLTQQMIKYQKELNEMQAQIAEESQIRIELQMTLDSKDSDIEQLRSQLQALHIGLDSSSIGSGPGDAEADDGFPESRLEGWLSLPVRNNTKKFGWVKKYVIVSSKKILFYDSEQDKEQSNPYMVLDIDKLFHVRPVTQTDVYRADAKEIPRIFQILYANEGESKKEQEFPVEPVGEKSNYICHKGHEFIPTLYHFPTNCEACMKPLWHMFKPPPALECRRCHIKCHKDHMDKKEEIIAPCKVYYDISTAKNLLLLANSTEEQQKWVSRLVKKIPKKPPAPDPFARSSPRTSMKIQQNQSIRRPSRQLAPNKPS

Structure (SMILES): Cc1nnc(C(=O)NC(C)(C)c2nc(C(=O)NCc3ccc(F)cc3)c(O[C@@H]3O[C@H](C(=O)O)[C@@H](O)[C@H](O)[C@H]3O)c(=O)n2C)o1 [raltegravir glucuronide]
- peak and overall exposure levels when raltegravir was dosed with belumosudil compared to dosing alone ([2]; Part 1): notable decrease
- MPR Cmax (metabolite to parent ratio) ([2]; Raltegravir + belumosudil (Day 7)): 0.299
- AUC(0-24), geometric mean [2, 12]: 1090 ng·h/mL
- AUC(0-inf), geometric mean [2, 12]: 1170 ng·h/mL
- AUC(0-last), geometric mean [2, 12]: 859 ng·h/mL
- Cmax, geometric mean [2, 12]: 207 ng/mL
- T1/2, geometric mean [2, 12]: approximately 3.9 h
- Tmax, median [2, 12]: 4.000 h
- T1/2, geometric mean ([2]; Raltegravir + belumosudil (Day 7), belumosudil 200 mg QD, listed as Raltegravir glucuronide): 3.919 h
- MPR Cmax (metabolite to parent ratio) ([2]; Raltegravir alone (Day 1)): 0.506
- AUC(0-24), geometric mean [2, 13]: 1710 ng·h/mL
- AUC(0-inf), geometric mean [2, 13]: 1290 ng·h/mL
- AUC(0-last), geometric mean [2, 13]: 1420 ng·h/mL
- Cmax, geometric mean [2, 13]: 359 ng/mL
- T1/2, geometric mean [2, 13]: ~1.5 h
- Tmax, median [2, 13]: 4.000 h
- T1/2, geometric mean ([2]; Raltegravir alone (Day 1), 400 mg single dose, listed as Raltegravir glucuronide): 1.541 h
- AUC(0-last), adj geo mean [2, 14]: 859 ng·h/mL
- Cmax, adj geo mean [2, 14]: 207 ng/mL
- AUC(0-last), adj geo mean [2, 15]: 1420 ng·h/mL
- Cmax, adj geo mean [2, 15]: 359 ng/mL
- AUC(0-last), ratio of adj geo means (test/reference) [2, 16]: 60.38%
- Cmax, ratio of adj geo means (test/reference) [2, 16]: 57.58%

Structure (SMILES): CC(C)NC(=O)COc1cccc(-c2nc(Nc3ccc4[nH]ncc4c3)c3ccccc3n2)c1 [Belumosudil mesylate, 2-{3-[4-(1H-indazol-5-ylamino)-2-quinazolinyl]phenoxy}-N-(propan-2-yl) acetamide methanesulfonate (1:1)]
- solubility in DMF ([6]; DMF): slightly soluble
- solubility in DMSO ([6]; DMSO): soluble
- solubility in methanol ([6]; methanol): slightly soluble
- solubility in water ([6]; water): practically insoluble

Structure (SMILES): Cc1nnc(C(=O)NC(C)(C)c2nc(C(=O)NCc3ccc(F)cc3)c(O)c(=O)n2C)o1 [raltegravir, reference compound]
- Tmax, median [2, 12]: 3.000 h
- Tmax, median [2, 13]: 3.000 h
- AUC(0-inf) ([2]; male, human, in vivo, 400 mg): 1510 ng·h/mL
- Cmax, adj geo mean ([2]; male, human, in vivo, 400 mg): 512 ng/mL
- Cmax, geometric mean ([2]; male, human, in vivo, 400 mg): 520 ng/mL
- T1/2, geometric mean ([2]; male, human, in vivo, 400 mg): 1.434 h
- half-life ([2]; male, human, in vivo, 400 mg): ~1.4 h
- AUC(0-t) ([2]; male, human, in vivo, 400 mg, AUC(0-24), geometric mean): 1970 ng·h/mL
- AUC(0-t) ([2]; male, human, in vivo, 400 mg, AUC(0-last), adj geo mean): 1570 ng·h/mL
- AUC(0-t) ([2]; male, human, in vivo, 400 mg, AUC(0-last), geometric mean): 1640 ng·h/mL

Second part, the molecule after the results:

- AUC(0-last), geometric mean [1, 7]: 682 ng·h/mL
- Cmax, geometric mean [1, 7]: 99.5 ng/mL
- T1/2, geometric mean [1, 7]: 8.293 h
- Tmax, median [1, 7]: 2.000 h
- AUC(0-last), geometric mean [1, 8]: 317 ng·h/mL
- Cmax, geometric mean [1, 8]: 42.1 ng/mL
- T1/2, geometric mean [1, 8]: 8.128 h
- Tmax, median [1, 8]: 3.000 h
- AUC(0-last), adj geo mean [1, 9]: 682 ng·h/mL
- Cmax, adj geo mean [1, 9]: 99.5 ng/mL
- Cmax, adj geo mean ([1]; Regimen B, dabigatran etexilate 75 mg single dose alone (Day 1)): 42.1 ng/mL
- increase of exposure ([1]; coadministration of belumosudil): 2 fold
- AUC(0-inf), ratio of adj geo means (test/reference) [1, 10]: 206.47%
- AUC(0-last), ratio of adj geo means (test/reference) [1, 10]: 215.41%
- Cmax, ratio of adj geo means (test/reference) [1, 10]: 236.06%
- increase of overall exposure level [1, 11]: 2.06 fold
- increase of peak exposure level [1, 11]: 2.36 fold
- AUC(0-inf) ([1]; male, human, plasma, oral, 75 mg, Dabigatran etexilate alone (Day 1), 75 mg single dose, read-out: AUC(0-inf), geometric mean): 371 ng·h/mL
- AUC(0-inf) ([1]; male, human, plasma, oral, 75 mg, Regimen B, dabigatran etexilate 75 mg single dose alone (Day 1), read-out: AUC(0-inf), adj geo mean): 398 ng·h/mL
- AUC(0-inf) ([1]; male, human, plasma, oral, Dabigatran etexilate + belumosudil (Day 9), belumosudil 200 mg QD, read-out: AUC(0-inf), geometric mean): 801 ng·h/mL
- AUC(0-inf) ([1]; male, human, plasma, oral, Regimen B, dabigatran etexilate 75 mg single dose + belumosudil 200 mg QD (Day 9), read-out: AUC(0-inf), adj geo mean): 822 ng·h/mL
- AUC(0-t) ([1]; male, human, plasma, oral, Regimen B, dabigatran etexilate 75 mg single dose alone (Day 1), read-out: AUC(0-last), adj geo mean): 317 ng·h/mL
Structure (SMILES): [H]/N=C(/N)c1ccc(NCc2nc3cc(C(=O)N(CCC(=O)O)c4ccccn4)ccc3n2C)cc1 [unconjugated dabigatran, dabigatran, reference compound]

- ROCK2 activity of metabolite [3]: ROCK2 inactive
- increase of exposures (Cmax and AUC) following multiple dosing ([2]; human, in vivo): 1.30-1.49 fold
- median Tmax ([2]; human, in vivo): 1.5 to 3 h
- AUC(0-last), geometric mean ([2]; human, in vivo, 200 mg): 879 ng·h/mL
- AUC(0-tau), geometric mean ([2]; human, in vivo, 200 mg): 961 ng·h/mL
- Cmax, geometric mean ([2]; human, in vivo, 200 mg): 278 ng/mL
- Tmax, median ([2]; human, in vivo, 200 mg): 2.00 h
- increase of exposures (Cmax and AUC) following multiple dosing ([1]; human, in vivo): 1.27-1.42 fold
- median Tmax ([1]; human, in vivo): 1.5 to 2 h
- AUC(0-last), geometric mean ([1]; human, in vivo, 200 mg): 692 ng·h/mL
- AUC(0-tau), geometric mean ([1]; human, in vivo, 200 mg): 746 ng·h/mL
- Cmax, geometric mean ([1]; human, in vivo, 200 mg): 184 ng/mL
- Tmax, median ([1]; human, in vivo, 200 mg): 2.000 h
- increase of exposures (Cmax and AUC) following multiple dosing [4]: 1.21-1.57 fold
- median Tmax [4]: 1.5 to 2 h
- AUC(0-last), geometric mean ([4]; 200 mg): 557 ng·h/mL
- AUC(0-tau), geometric mean ([4]; 200 mg): 598 ng·h/mL
- Cmax, geometric mean ([4]; 200 mg): 215 ng/mL
- Tmax, median ([4]; 200 mg): 2.000 h
Structure (SMILES): O=C(O)COc1cccc(-c2nc(Nc3ccc4[nH]ncc4c3)c3ccccc3n2)c1 [KD025m2]

- ROCK2 activity of metabolite [3]: ROCK2 active
- exposure of metabolite relative to the parent [5]: < 5%
- geometric mean T1/2 ([2]; human, in vivo): 1.6 to 2 h
- median Tmax ([2]; human, in vivo): 1.5 to 3 h
- AUC(0-last), geometric mean ([2]; human, in vivo, 200 mg): 47.6 ng·h/mL
- AUC(0-tau), geometric mean ([2]; human, in vivo, 200 mg): 96.6 ng·h/mL
- Cmax, geometric mean ([2]; human, in vivo, 200 mg): 21.4 ng/mL
- T1/2, geometric mean ([2]; human, in vivo, 200 mg): 1.621 h
- Tmax, median ([2]; human, in vivo, 200 mg): 2.00 h
- T1/2, individual participant value(s) ([1]; human, in vivo): 1.878^b h
- median Tmax ([1]; human, in vivo): 1.5 to 2 h
- AUC(0-last), geometric mean ([1]; human, in vivo, 200 mg): 35.3 ng·h/mL
- Cmax, geometric mean ([1]; human, in vivo, 200 mg): 19.5 ng/mL
- Tmax, median ([1]; human, in vivo, 200 mg): 1.750 h
- median Tmax [4]: 1.5 to 2 h
- AUC(0-last), geometric mean ([4]; 200 mg): 32.0 ng·h/mL
- Cmax, geometric mean ([4]; 200 mg): 17.1 ng/mL
- Tmax, median ([4]; 200 mg): 1.500 h
Structure (SMILES): NC(=O)COc1cccc(-c2nc(Nc3ccc4[nH]ncc4c3)c3ccccc3n2)c1 [KD025m1]

- increase of overall exposure level ([4]; male): 4.62 fold
- increase of peak exposure level ([4]; male): 3.59 fold
- AUC(0-inf) ([4]; male, 10 mg): 25.4 ng·h/mL
- AUC(0-last), geometric mean ([4]; male, 10 mg): 13.6 ng·h/mL
- AUC(0-t) ([4]; male, 10 mg): 13.6 ng·h/mL
- Cmax, adj geo mean ([4]; male, 10 mg): 2.96 ng/mL
- Cmax, geometric mean ([4]; male, 10 mg): 2.96 ng/mL
Structure (SMILES): CC(C)c1nc(N(C)S(C)(=O)=O)nc(-c2ccc(F)cc2)c1/C=C/[C@@H](O)C[C@@H](O)CC(=O)O [rosuvastatin, reference compound]
